# Results as given in US8541363B2, “Pyruvamide compounds as inhibitors of dust mite group 1 peptidase allergen and their use” (St George's Hosptial Medical School, priority 2010, dated 2013).
# Molecular target: Der p 1 (Dermatophagoides pteronyssinus (European house dust mite), UniProt P08176)
# Assay: Der p 1 enzyme activity assay (FRET fluorogenic substrate)
# Type: biochemical
# Conditions: Der p 1 IC50
# Procedure: The fluorogenic substrate used for measuring Der p 1 proteolytic activity was 2-aminobenzoylvalylalanylnorleucylseryl-(3-nitro)tyrosinyl aspartamide.
# Test compounds were dissolved in dry DMSO and maintained at 4° C. as stock solutions until being diluted for use in screening assays. Final concentration of DMSO in all enzymatic assays was 0.5% v/v.
# Reaction mixtures were assembled in a 96-well plate format (Perkin Elmer Optiplate 96F, Perkin Elmer LAS, Seer Green, Buckinghamshire, UK) using a Perkin Elmer MultiPROBE II Plus HTS EX robot with Gripper attachment. […] Dithiothreitol (DTT, 10 μL/well, 1 mM final concentration) was then added together with 10 μL of Der p 1 dissolved at 2.5 μg/mL in reaction buffer supplemented with 1 mM DTT. […] The plate was immediately transferred to a fluorescence plate reader (Perkin Elmer Fusion Alpha-FP or Perkin Elmer Envision) equipped with a temperature-controlled carrier set at 30° C. and the reaction followed by excitation/emission at 330/420 nm.
# Inhibitory activity was analysed from progress curves of reactions in the presence of a range of inhibitor concentrations.
# Initial velocity in each well was converted to fractional activity by Equation 1: Fractional activity=(Initial rate at inhibitor concentration[X]/Initial rate at inhibitor concentration zero)*100 Equation 1:
# Then, IC50 was determined by fitting the data of fractional activity and inhibitor concentration to a 4-parameter logistic curve, using Equation 2: V=Vmin+[Vmax−Vmin]/[1+(X/IC50)Hillslope] […] Biological Data—Der p 1 Enzyme Assay
# Chain of Der p 1 (P08176 99-320): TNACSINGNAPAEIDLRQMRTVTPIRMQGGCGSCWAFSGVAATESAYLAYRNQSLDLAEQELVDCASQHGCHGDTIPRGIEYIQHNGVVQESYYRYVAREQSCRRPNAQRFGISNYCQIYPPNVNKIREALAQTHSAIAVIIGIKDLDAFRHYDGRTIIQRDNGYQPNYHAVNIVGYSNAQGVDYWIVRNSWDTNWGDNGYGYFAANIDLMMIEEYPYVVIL
row,SMILES,IC50 [nM]
1,CC(C)[C@H](NC(=O)[C@H](C)NC(=O)[C@H](Cc1ccccc1)NC(=O)c1ccccc1)C(=O)C(=O)NCC(=O)N1CCCCC1 [PVA-067],< 20
2,CC(C)[C@H](NC(=O)[C@H](C)NC(=O)[C@H](Cc1ccccc1)NC(=O)c1ccccc1)C(=O)C(=O)NCC(=O)N1CCOCC1 [PVA-068],< 20
3,CC(C)[C@@H](NC(=O)[C@H](C)NC(=O)[C@@H](NC(=O)c1ccccc1)C(C)(C)C)C(=O)C(=O)NC1CCCCC1 [PVA-085],< 200
4,CC(C)[C@@H](NC(=O)[C@H](C)NC(=O)[C@@H](NC(=O)c1ccncc1)C(C)(C)C)C(=O)C(=O)NC1CCCCC1 [PVA-086],< 200
5,CC(C)[C@H](NC(=O)[C@H](C)NC(=O)[C@H](Cc1ccccc1)NC(=O)c1ccccc1)C(=O)C(=O)NCC(=O)N1CCN(C(C)C)CC1 [PVA-092],< 20
6,CC(C)[C@H](NC(=O)[C@H](C)NC(=O)[C@H](Cc1ccccc1)NC(=O)c1ccccc1)C(=O)C(=O)N[C@@H](C)C(=O)N1CCN(C)CC1 [PVA-094],< 20
7,CC(C)[C@H](NC(=O)[C@H](C)NC(=O)[C@@H](NC(=O)c1ccccc1)C(C)(C)C)C(=O)C(=O)NCC(=O)N1CCc2ccccc2C1 [PVA-111],< 20

# Same assay, conditions: threshold stated in text; read-out: Der p 1 IC50
row,SMILES,IC50 [nM]
1,CC(=O)Nc1cc(C(=O)N[C@H](C(=O)N[C@@H](C)C(=O)N[C@H](C(=O)C(=O)NC2CCCCC2)C(C)C)C(C)(C)C)ccn1 [PVA-062],< 200
2,CC(=O)Nc1ccc(C(=O)N[C@H](C(=O)N[C@@H](C)C(=O)N[C@H](C(=O)C(=O)NCc2ccccc2)C(C)C)C(C)(C)C)cn1 [PVA-063],< 200
3,CC(=O)Nc1cc(C(=O)N[C@H](C(=O)N[C@@H](C)C(=O)N[C@H](C(=O)C(=O)NCc2ccccc2)C(C)C)C(C)(C)C)ccn1 [PVA-064],< 200
4,CC(C)[C@H](NC(=O)[C@H](C)NC(=O)[C@H](Cc1ccccc1)NC(=O)c1cccc(OCCN2CCCC2)c1)C(=O)C(=O)NC1CCCCC1 [PVA-065],< 200
5,CC(C)[C@H](NC(=O)[C@H](C)NC(=O)[C@@H](NC(=O)c1ccccc1)C12C[C@H]3C[C@@H](C1)C[C@@H](C2)C3)C(=O)C(=O)NCc1ccccc1 [PVA-066],< 20
6,CC(C)[C@H](NC(=O)[C@H](C)NC(=O)[C@H](Cc1ccccc1)NC(=O)c1ccnc(N2CCOCC2)c1)C(=O)C(=O)NC1CCCCC1 [PVA-069],< 2000
7,CC(C)[C@H](NC(=O)[C@H](C)NC(=O)[C@H](Cc1ccccc1)NC(=O)c1ccc(N2CCOCC2)nc1)C(=O)C(=O)NCc1ccccc1 [PVA-070],< 2000
8,CC(C)[C@H](NC(=O)[C@H](C)NC(=O)[C@@H](NC(=O)c1ccnc2ccccc12)C(C)(C)C)C(=O)C(=O)NC1CCCCC1 [PVA-071],< 20
9,CC(C)[C@H](NC(=O)[C@H](C)NC(=O)[C@@H](NC(=O)c1ccnc2ccccc12)C(C)(C)C)C(=O)C(=O)NCc1ccccc1 [PVA-072],< 20
10,CC(C)[C@H](NC(=O)[C@H](C)NC(=O)[C@@H](NC(=O)c1cncc2ccccc12)C(C)(C)C)C(=O)C(=O)NC1CCCCC1 [PVA-073],< 20
11,CC(C)[C@H](NC(=O)[C@H](C)NC(=O)[C@@H](NC(=O)c1cncc2ccccc12)C(C)(C)C)C(=O)C(=O)NCc1ccccc1 [PVA-074],< 20
12,CC(C)[C@H](NC(=O)[C@H](C)NC(=O)[C@@H](NC(=O)c1cccc(OCc2nccn2C)c1)C(C)(C)C)C(=O)C(=O)NC1CCCCC1 [PVA-075],< 200
13,CC(C)[C@H](NC(=O)[C@H](C)NC(=O)[C@@H](NC(=O)c1ccc(OCCN2CCCC2)cc1)C(C)(C)C)C(=O)C(=O)NC1CCCCC1 [PVA-076],< 200
14,CC(C)[C@H](NC(=O)[C@H](C)NC(=O)[C@@H](NC(=O)c1ccc(OCc2nccn2C)cc1)C(C)(C)C)C(=O)C(=O)NC1CCCCC1 [PVA-077],< 200
15,CC(C)[C@H](NC(=O)[C@H](C)NC(=O)[C@@H](NC(=O)c1ccccc1)C(C)(C)C)C(=O)C(=O)NCC(=O)N1CCCCC1 [PVA-078],< 20
16,CC(C)[C@H](NC(=O)[C@H](C)NC(=O)[C@@H](NC(=O)c1ccccc1)C(C)(C)C)C(=O)C(=O)NCC(=O)N1CCOCC1 [PVA-079],< 20
17,COC(=O)c1cccc(CNC(=O)C(=O)[C@@H](NC(=O)[C@H](C)NC(=O)[C@H](Cc2ccccc2)NC(=O)c2ccccc2)C(C)C)c1 [PVA-080],< 20
18,CC(C)[C@H](NC(=O)[C@H](C)NC(=O)[C@H](Cc1ccccc1)NC(=O)c1ccccc1)C(=O)C(=O)NCc1cccc(C(=O)O)c1 [PVA-081],< 200
19,CC(C)[C@H](NC(=O)[C@H](C)NC(=O)[C@@H](NC(=O)c1ccncn1)C(C)(C)C)C(=O)C(=O)NC1CCCCC1 [PVA-082],< 200
20,CC(C)[C@H](NC(=O)[C@H](C)NC(=O)[C@H](Cc1ccccc1)NC(=O)c1ccccc1)C(=O)C(=O)NC1CCN(C)CC1 [PVA-083],< 200
21,CC(C)[C@H](NC(=O)[C@H](C)NC(=O)[C@@H](NC(=O)c1ccc(=O)[nH]c1)C(C)(C)C)C(=O)C(=O)NC1CCCCC1 [PVA-084],< 200
22,CCC[C@H](NC(=O)[C@H](Cc1ccccc1)NC(=O)c1ccccc1)C(=O)N[C@H](C(=O)C(=O)NC1CCCCC1)C(C)C [PVA-088],< 200
23,CC(C)[C@H](NC(=O)[C@H](C)NC(=O)[C@@H](NC(=O)C1CCN(C)CC1)C(C)(C)C)C(=O)C(=O)NC1CCCCC1 [PVA-089],< 200
24,CC(C)[C@H](NC(=O)[C@H](C)NC(=O)C(C)(C)NC(=O)c1ccccc1)C(=O)C(=O)NC1CCCCC1 [PVA-090],< 2000

row,SMILES,IC50 [nM]
1,CC(C)[C@H](NC(=O)[C@H](C)NC(=O)C1(NC(=O)c2ccccc2)CCCCC1)C(=O)C(=O)NC1CCCCC1 [PVA-091],< 200
2,CC(C)[C@H](NC(=O)[C@H](C)NC(=O)[C@H](Cc1ccccc1)NC(=O)c1ccccc1)C(=O)C(=O)NCC(=O)N1CCC(N(C)C)CC1 [PVA-093],< 20
3,CC(C)[C@H](NC(=O)[C@H](C)NC(=O)[C@H](Cc1ccccc1)NC(=O)c1cccc2ccccc12)C(=O)C(=O)NCC(=O)N1CCN(C)CC1 [PVA-095],< 200
4,CC(C)[C@H](NC(=O)[C@H](C)NC(=O)[C@H](Cc1ccccc1)NC(=O)c1ccccc1)C(=O)C(=O)NCCN1CCN(C)CC1 [PVA-098],< 200
5,CC(C)[C@H](NC(=O)[C@H](C)NC(=O)[C@H](Cc1ccccc1)NC(=O)c1ccncc1)C(=O)C(=O)NCc1ccccc1 [PVA-099],< 20
6,CC(C)[C@H](NC(=O)[C@H](C)NC(=O)[C@@H]1Cc2ccccc2CN1C(=O)c1ccccc1)C(=O)C(=O)NC1CCCCC1 [PVA-100],< 200
7,CC(C)[C@H](NC(=O)[C@H](C)NC(=O)C1CCCN1C(=O)c1ccccc1)C(=O)C(=O)NC1CCCCC1 (stereo partly drawn) [PVA-101],< 200
8,C[C@H](NC(=O)[C@H](Cc1ccccc1)NC(=O)c1ccccc1)C(=O)NCC(=O)C(=O)NCc1ccccc1 [PVA-102],< 200
9,CC(C)[C@H](NC(=O)[C@H](C)NC(=O)[C@H](Cc1ccccc1)NC(=O)c1ccccc1)C(=O)C(=O)NC1Cc2ccccc2C1 [PVA-103],< 200
10,CC(C)[C@H](NC(=O)[C@H](C)NC(=O)[C@H](Cc1ccccc1)N1Cc2ccccc2C1=O)C(=O)C(=O)NC1CCCCC1 [PVA-104],< 20
11,CC(C)[C@H](NC(=O)[C@H](C)NC(=O)[C@@H](NC(=O)c1ccccc1)C(C)(C)C)C(=O)C(=O)NCC(=O)N1CCC(N(C)C)C1 (stereo partly drawn) [PVA-105],< 20
12,CC(C)[C@H](NC(=O)[C@H](C)NC(=O)[C@@H](NC(=O)c1ccccc1Oc1ccccc1)C(C)(C)C)C(=O)C(=O)NCc1ccccc1 [PVA-106],< 200
13,Cc1cc(C(=O)N[C@H](C(=O)N[C@@H](C)C(=O)N[C@H](C(=O)C(=O)NCc2ccccc2)C(C)C)C(C)(C)C)[nH]n1 [PVA-107],< 200
14,CC(C)[C@H](NC(=O)[C@H](C)NC(=O)[C@@H](NC(=O)c1ccccc1S(C)(=O)=O)C(C)(C)C)C(=O)C(=O)NCc1ccccc1 [PVA-108],< 20
15,CC(C)[C@H](NC(=O)[C@H](C)NC(=O)[C@@H](NC(=O)c1ccccc1)C(C)(C)C)C(=O)C(=O)N[C@@H]1CCc2ccccc21 [PVA-109],< 200
16,CC(C)[C@H](NC(=O)[C@H](C)NC(=O)[C@@H](NC(=O)c1ccccc1)C(C)(C)C)C(=O)C(=O)N[C@H]1CCc2ccccc21 [PVA-110],< 200
17,CC(C)[C@H](NC(=O)[C@H](C)NC(=O)[C@@H](NC(=O)c1ccccc1)C(C)(C)C)C(=O)C(=O)NCC(=O)N1CCc2ccccc21 [PVA-112],< 20
18,CC(C)[C@H](NC(=O)[C@H](C)NC(=O)[C@H](Cc1ccccc1)NC(=O)c1n[nH]c2ccccc12)C(=O)C(=O)NCc1ccccc1 [PVA-113],< 200
19,CC(C)[C@H](NC(=O)[C@H](C)NC(=O)[C@@H](NC(=O)c1cc[nH]c(=O)c1)C(C)(C)C)C(=O)C(=O)NCc1ccccc1 [PVA-114],< 200
20,Cc1n[nH]c(C)c1C(=O)N[C@H](C(=O)N[C@@H](C)C(=O)N[C@H](C(=O)C(=O)NCc1ccccc1)C(C)C)C(C)(C)C [PVA-115],< 200
21,CC(C)[C@H](NC(=O)[C@H](C)NC(=O)[C@@H](NC(=O)c1ccccc1)C(C)(C)C)C(=O)C(=O)NC1CC1 [PVA-116],< 20
22,CNC(=O)C(=O)[C@@H](NC(=O)[C@H](C)NC(=O)[C@@H](NC(=O)c1ccccc1)C(C)(C)C)C(C)C [PVA-117],< 200
23,CC(C)[C@H](NC(=O)[C@H](C)NC(=O)[C@@H](NC(=O)c1ccccc1)C(C)(C)C)C(=O)C(N)=O [PVA-118],< 20
